Several values for one entry are separate records, joined by “and”; a condition that tells them apart may be missing. Equal entries are not always repeated. Entries after “also recorded” stand apart in the source; their conditions may differ.
Tests used:
5-LOX = assay: In vitro 5-LOX inhibitory assay (Abnova 5-LOX inhibitor screening assay kit); format: biochemical
Source text: The newly synthesised compounds were screened for their ability to inhibit 5-LOX enzymes. […] (Page: S21, Supplementary file). […]
In vitro LOX inhibitory assay
Inhibitor Screening Assay Kit detects and measures the hydroperoxides produced in the lipoxygenation reaction using a purified LOX. The detection reaction is equally sensitive to hydroperoxides at various positions within the fatty acid and will work with fatty acids of any carbon length. It is thus a general detection method for 5-LOX and can be used to screen libraries of compounds for those which inhibit 5 -LOX enzymes.
1) Blank Wells- add 100 µL of assay buffer to at least two wells.
2) Positive Control Wells- Lipoxygenase (15-LO standard) add 90 µL 15-LO and 10 µL of assay buffer […]
3) 100% Initial Activity Wells- add 90 µL 15-LO and 10 µL of solvent (DMSO) (the same solvent to dissolve the inhibitor) to two wells. The 100% initial activity wells should result in approximately 10 […]
4) Inhibitor Wells- add 90 µL of sample and I10 µL of inhibitor to two wells.
5) Initiate the reaction by adding 10 µL of substrate (either arachidonic acid or linoleic acid) to all the wells. Place the 96-well plate on a shaker for at least five minutes.
6) Add 100 µL of chromogen to each well to stop enzyme catalysis and develop the reaction. Cover with a plate cover and place the 96-well plate on a shaker for at least five minutes.
7) Remove the cover and read the absorbance at 490-500 nm using a plate reader.
Inhibitors were dissolved in DMSO. The inhibitors were added to the assay in a final volume of 10 µL before initiating with substrate. Three concentrations were prepared (25, 50 and 100 µM) to determine the concentration produced 50% enzyme inhibition.
2) The absorbance of blank wells was subtracted from absorbance of the 100% Initial activity and the […]

[1] = system: formalin-induced rat paw oedema; assay: Formalin-induced paw oedema test (acute inflammation model); format: in vivo; conditions: for inhibition in vivo at 5 mg/kg: Rattus norvegicus, po, read-out: % Inhibition of oedema volume; for % Relative potency (4h) diclofenac, Mean ± SD / % Relative potency (4h) diclofenac: relative to % inhibition of diclofenac at 4 h
Experimental: Animals Adult female albino rats weighing 150-250 g were used (Experimental Animal Centre in Alexandria University). All animals accessed to food and water ad libitum and were housed in 12 h dark/light cycle in a controlled condition at 23-250C. They were allowed to acclimatize for 1 week prior to experimentation. Procedures involving animals and their care were conducted in conformity with the Guide for the Care and Use of Laboratory Animals published by US National Institute of Health4 (NIH publication No. 83-23, revised) and following the ethical guidelines of Alexandria University on laboratory animals. In all tests, adequate considerations were adopted to reduce pain or discomfort of animals (Approved by AlexU-IACUC) 3. […]
Formalin-induced paw edema test (acute inflammation model):
A solution of freshly prepared formalin 5% was used as a phlogistic agent. A mark was made on the lateral malleolus of the rats’ paws delineating the injection sites. The initial volume of paw was measured by means of digital calibrated Vernier caliper .
After 45 minutes, 40 μl formalin were injected subcutaneously into the sub plantar tissue of the right hind paw of all groups under light ether anesthesia . An equal volume of saline was injected into the left hind paw and served as internal control for the degree of inflammation in the right hind paw. 5, 6 The volume of paw was measured in different treatment groups, 4 h following the formalin injection and the amount of increase in paw volume (edema volume) was calculated by subtracting the volumes before and 4 h after the injection of formalin. Edema was expressed as an increase in the volume of paw, and the percentage of edema inhibition (or percent protection against inflammation) for each rat and each group was calculated according to the following equation: […]
Where Vt is the mean volume of edema at specific time interval (4 h) and Vo is the mean volume of edema […]
Relative potency of the tested compounds was expressed as % inhibition of edema for the tested compounds

gastric mucosa = assay: In vivo gastric ulcerogenic activity (gross examination of gastric mucosa); conditions: fasted rats, 60 mg/kg orally, six hours after treatment, 60 mg/kg
Experimental: Compounds were evaluated for acute gastric ulcerogenic effect in adult female Wistar rats. Gross examination was performed for any evidence of hyperaemia, haemorrhage, definite haemorrhagic erosion, or ulcer according to reported procedures[49]^,[51]
Compounds were evaluated for acute gastric ulcerogenic effect in adult female Wistar rats. Rats (150–250 g)
were divided into groups of six rats each and test compounds, references or DMSO as control were
administered orally at a dose of 60 mg/kg body weight (three times the previously used dose). Six hours after
the treatment they were sacrificed under deep ether anesthesia and their stomachs were removed and opened
through greater curvature, washed under running water and fixed in saline solution. Gross examination was
performed for any evidence of hyperemia, hemorrhage, definite hemorrhagic erosion or ulcer 6, 7 (Approved
The degree of ulcerogenicity was determined by viewing the gastric epithelial ulceration using a 5x
magnifying lens and rated by ulcer score.
Ulcer score was used to grade the incidence and severity of the lesions such as:
1) Shedding of epithelium—10
2) Petechial and frank hemorrhages—20
4) More than two ulcers—40

COX-1 = target: T1, COX-1 (Ovis aries, UniProt P05979); assay: In vitro COX-1 inhibitory assay (Cayman colorimetric COX (ovine) inhibitor screening assay kit); format: biochemical; conditions: mean of three replicates ± SD
T1 construct: purchased Cayman chemicals 560131
T1 sequence (P05979 25-600): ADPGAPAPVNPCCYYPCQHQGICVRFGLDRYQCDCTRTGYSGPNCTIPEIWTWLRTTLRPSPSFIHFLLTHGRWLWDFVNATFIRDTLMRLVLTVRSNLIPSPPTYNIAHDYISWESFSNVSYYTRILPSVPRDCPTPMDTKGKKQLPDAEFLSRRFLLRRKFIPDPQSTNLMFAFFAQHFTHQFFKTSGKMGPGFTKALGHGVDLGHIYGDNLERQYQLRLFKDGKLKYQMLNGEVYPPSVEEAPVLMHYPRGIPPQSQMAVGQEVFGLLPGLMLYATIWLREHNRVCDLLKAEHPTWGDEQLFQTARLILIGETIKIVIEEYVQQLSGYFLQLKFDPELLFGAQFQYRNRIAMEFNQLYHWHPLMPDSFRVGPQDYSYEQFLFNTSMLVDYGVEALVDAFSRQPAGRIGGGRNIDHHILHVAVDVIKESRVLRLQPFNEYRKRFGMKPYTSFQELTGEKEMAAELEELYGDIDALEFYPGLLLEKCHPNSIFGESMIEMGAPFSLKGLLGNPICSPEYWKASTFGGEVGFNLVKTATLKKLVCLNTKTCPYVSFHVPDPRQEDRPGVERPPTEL
Experimental: (Page: S20, Supplementary file).
Anti-inflammatory activity
In vitro COX-1 and COX-2 inhibitory assay […]
supplied by Cayman chemicals, Ann Arbor, MI, USA according to reported method 1. The colorimetric COX inhibitor screening assay utilizes the peroxidase component of cyclooxygenase. The peroxidase activity was assayed calorimetrically by monitoring the appearance of oxidized N,N,N',N'-tetramethyl-1,4-phenylenediamine (TMPD) at 590nm. The appearance of reagent was carried out following the instructions […]
The half- maximal inhibitor concentrations (IC50µM) were determined and the selectivity index (SI) values were calculated as IC50 (COX-1)/IC50 (COX-2).
1) Background wells- 160 µL of assay buffer and 10 µL of heme were added to background wells.
2) The 100% Initial activity wells- 150 µL of assay buffer, 10 µL of heme and 10 µL of enzyme (COX-1 or COX-2) were added.
3) Inhibitor well- 150 µL of assay buffer, 10 µL of heme and 10 µL of enzyme were added.
4) 10 µL of inhibitor (3 concentrations) in DMSO was added to the inhibitor wells to yield a final […]
5) 10 µL of solvent (DMSO) was added to the 100% Initial activity wells and background wells.
7) 20 µL of colorimetric substrate solution (TMPD) was added to all wells.
8) 20 µL of arachidonic acid was added to all wells to yield a final concentration of 100 µM.
10) The absorbance was measured at 590 nm using a plate reader.
The calculations were carried out in the following manner:
1) The average absorbance of all samples was determined.
2) The absorbance of background wells was subtracted from absorbance of the 100% Initial activity […]
3) Percent inhibition = (100% Initial activity – Inhibitor wells/ 100% Initial activity)∗ 100 […]
Place the 96-well plate on a shaker for at least five minutes. […]

[2] = 4 h, individual rats 1-3, 5 mg/kg orally
[3] = relative to % inhibition of celecoxib at 4 h, individual rats 1-3

## COc1ccc(-c2cc(C(=O)NN=Cc3c(C)ccc(C(C)C)c3O)[nH]n2)cc1 [Compound 4c, N'-(2-Hydroxy-3-isopropyl-6-methylbenzylidene)-3–(4-methoxyphenyl)-1H-pyrazole-5-carbohydrazide]
5-LOX
  IC50: 2.91 ± 0.068 µM
[1]; 4 h after formalin, individual rats 1-3, 5 mg/kg orally, 5 mg/kg
  Volume of oedema (ml) 4h: 6.20 mL
[1]; [2]
  inhibition in vivo at 5 mg/kg: 66.2%
[1]; relative to % inhibition of celecoxib at 4 h, group mean ± SD
  % Relative potency (4h) celecoxib, Mean ± SD: 165.7 ± 20.01%
[1]; [3]
  % Relative potency (4h) celecoxib: 188.50% and 151.20% and 157.30%
[1]; group mean ± SD
  % Relative potency (4h) diclofenac, Mean ± SD: 115.6 ± 21.54%
[1]; individual rats 1-3
  % Relative potency (4h) diclofenac: 140.0% and 107.60% and 99.20%
Gastric mucosa
  Gross appearance of gastric mucosa (ulcerogenic potential): variable degrees of hyperaemia; also recorded: Hyperemia without gross ulceration
other
  melting point: 246 to 248 °C
COX-1
  IC50: 10.22 ± 0.046 µM

## COc1ccc(-c2cc(C(=O)NN=Cc3c(C)ccc(C(C)C)c3O)nn2-c2ccc(Cl)cc2)cc1 [Compound 8i, 5-(4-Methoxyphenyl)-1-(4-chlorophenyl)-N'-(2-hydroxy-3-isopropyl-6-methylbenzylidene)-1H-pyrazole-3-carbohydrazide]
5-LOX
  IC50: 2.78 ± 0.016 µM
[1]; 4 h, 5 mg/kg orally, comparison with celecoxib or diclofenac sodium
  % inhibition of paw oedema compared with reference drugs (in words): double % inhibition exhibited by Celecoxib
[1]; [2]
  inhibition in vivo at 5 mg/kg: 67.6%
[1]; [3]
  % Relative potency (4h) celecoxib: 192.30% and 183.30% and 210.70%
[1]; group mean ± SD
  % Relative potency (4h) diclofenac, Mean ± SD: 135.4 ± 6.60%
[1]; individual rats 1-3
  % Relative potency (4h) diclofenac: 142.90% and 130.50% and 132.80%
[1]; time 0, individual rats 1-3, 5 mg/kg orally, 5 mg/kg
  Volume of oedema (ml) 0: 5.30 mL
Gastric mucosa
  Gross appearance of gastric mucosa (ulcerogenic potential): variable degrees of hyperaemia; also recorded: Hyperemia without gross ulceration
other
  melting point: 218 to 220 °C
COX-1
  IC50: 12.6 ± 0.46 µM

Source: publication PMC9704104, “Towards safer anti-inflammatory therapy: synthesis of new thymol–pyrazole hybrids as dual COX-2/5-LOX inhibitors” (Journal of Enzyme Inhibition and Medicinal Chemistry, 2022)
